This assay has as its target T1, human recombinant HDAC6 (Homo sapiens, UniProt Q9UBN7).
T1 construct: purchased Calbiochem 382180
T1 sequence (Q9UBN7 1-1215): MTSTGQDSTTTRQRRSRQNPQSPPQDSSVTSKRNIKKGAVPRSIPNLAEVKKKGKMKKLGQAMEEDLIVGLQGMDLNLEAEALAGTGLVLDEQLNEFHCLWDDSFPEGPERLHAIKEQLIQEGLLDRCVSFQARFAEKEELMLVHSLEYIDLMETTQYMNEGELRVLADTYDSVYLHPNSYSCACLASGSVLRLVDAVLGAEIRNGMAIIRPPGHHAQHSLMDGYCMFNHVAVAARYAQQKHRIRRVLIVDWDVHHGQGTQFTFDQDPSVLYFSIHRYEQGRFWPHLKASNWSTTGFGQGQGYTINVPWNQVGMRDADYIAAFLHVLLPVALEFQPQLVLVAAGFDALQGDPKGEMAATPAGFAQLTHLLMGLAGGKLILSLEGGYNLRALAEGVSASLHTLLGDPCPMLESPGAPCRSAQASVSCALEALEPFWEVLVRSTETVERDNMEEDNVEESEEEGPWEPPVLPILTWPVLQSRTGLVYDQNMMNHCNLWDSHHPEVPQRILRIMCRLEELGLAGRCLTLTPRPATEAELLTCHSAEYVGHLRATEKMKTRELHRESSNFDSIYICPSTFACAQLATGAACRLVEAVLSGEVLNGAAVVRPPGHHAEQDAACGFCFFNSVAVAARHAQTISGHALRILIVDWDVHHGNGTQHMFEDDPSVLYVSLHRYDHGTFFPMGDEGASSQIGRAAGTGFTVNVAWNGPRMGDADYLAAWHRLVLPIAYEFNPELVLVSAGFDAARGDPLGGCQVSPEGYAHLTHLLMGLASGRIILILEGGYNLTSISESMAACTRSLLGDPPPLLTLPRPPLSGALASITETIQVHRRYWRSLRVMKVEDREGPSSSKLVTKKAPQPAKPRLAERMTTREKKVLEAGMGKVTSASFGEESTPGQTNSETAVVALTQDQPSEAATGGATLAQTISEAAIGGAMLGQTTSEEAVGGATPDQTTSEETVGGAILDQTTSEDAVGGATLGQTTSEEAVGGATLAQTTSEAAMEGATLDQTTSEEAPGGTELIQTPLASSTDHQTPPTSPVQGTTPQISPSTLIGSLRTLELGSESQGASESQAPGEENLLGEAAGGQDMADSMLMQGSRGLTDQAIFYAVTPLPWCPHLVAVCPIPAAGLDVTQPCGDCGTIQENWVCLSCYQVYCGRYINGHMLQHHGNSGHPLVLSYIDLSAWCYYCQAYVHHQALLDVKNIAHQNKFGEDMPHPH
Description: HDAC6 enzyme activity inhibition assay (HDAC Fluorimetric Drug Discovery Kit). The format is biochemical. The conditions noted are these: for HDAC6 selectivity (fold): HDAC1 vs HDAC6; for IC50: same protocol as the HDAC1 enzyme activity test. The procedure:
In order to examine the HDAC6 selectivity of the compounds of formula I of the present invention by HDAC1 and HDAC6 enzymatic activity inhibition assays, an experiment was performed using a conventional substance as a control.
HDAC enzyme activity was measured using a HDAC Fluorimetric Drug Discovery Kit (BML-AK511, 516, Enzo Life Science). For the HDAC1 enzyme activity test, human recombinant HDAC1 (BML-SE456) was used as an enzyme source, and Fluor de Lys®-“SIRT1 (BNL-KI177) was used as a substrate. A 5-fold dilution of the compound was seeded into a 96-well plate, and then 0.3 μg of the enzyme and 10 μM of the substrate were added to each well of the plate and allowed to react at 30° C. for 60 minutes. Then, Fluor de Lys®-Developer II (BML-KI176) was added thereto and allowed to react for 30 minutes, after which the fluorescence value (Ex 360, Em 460) was measured using a multi-plate reader (Flexstation 3, Molecular Device). The HDAC6 enzyme was tested using human recombinant HDAC6 (382180) (Calbiochem) according to the same protocol as the HDAC1 enzyme activity test method. Based on the resulting values, each IC50 value was calculated using GraphPad Prism4.0 program.

Broadly, the IC50 is the concentration that gives 50% inhibition. For `O=S(=O)(CCCN1CCC(F)C1)N(Cc1ccc(-c2nnc(C(F)F)o2)cc1)c1ccccc1` (stereo in doubt) [Compound 11724, (R)—N-(4-(5-(difluoromethyl)-1,3,4-oxadiazol-2-yl)benzyl)-3-(3-fluoropyrrolidin-1-yl)-N-phenylpropane-1-sulfonamide], the “HDAC6 selectivity (fold)” value stood at 741 fold and the IC50 amounted to 135 nM.
Consider `CS(=O)(=O)N(Cc1ccccn1)Cc1ccc(-c2nnc(C(F)(F)F)o2)cc1F` [Compound 11044, N-(2-fluoro-4-(5-(trifluoromethyl)-1,3,4-oxadiazol-2-yl)benzyl)-N-(pyridin-2-ylmethyl)methanesulfonamide], for which the “HDAC6 selectivity (fold)” value was 302 fold and the IC50 stood at 331 nM.
On the same counts, the results for `CS(=O)(=O)N(Cc1ccc(-c2nnc(C(F)(F)F)o2)cc1)Cc1ccccn1` [Compound 11045, N-(pyridin-2-ylmethyl)-N-(4-(5-(trifluoromethyl)-1,3,4-oxadiazol-2-yl)benzyl)methanesulfonamide] are 633 fold and 158 nM.
On the same counts, the results for `COc1ccc(S(=O)(=O)NCc2ccc(-c3nnc(C(F)(F)F)o3)cc2)cc1` [Compound 11078, 4-methoxy-N-(4-(5-(trifluoromethyl)-1,3,4-oxadiazol-2-yl)benzyl)benzenesulfonamide] are 29 fold and 3470 nM.
On the same counts, the results for `CS(=O)(=O)N(Cc1ccc(-c2nnc(C(F)F)o2)cc1F)c1cccnc1` [Compound 11120, N-(4-(5-(difluoromethyl)-1,3,4-oxadiazol-2-yl)-2-fluorobenzyl)-N-(pyridin-3-yl)methanesulfonamide] are 2631 fold and 38 nM.
As to `CS(=O)(=O)NCc1ccc(-c2nnc(C(F)(F)F)o2)cc1` [Compound 11121, N-(4-(5-(trifluoromethyl)-1,3,4-oxadiazol-2-yl)benzyl)methanesulfonamide], the “HDAC6 selectivity (fold)” value amounted to 39 fold and the IC50 was 2540 nM.
On the same counts, the results for `CS(=O)(=O)N(Cc1ccccn1)Cc1ccc(-c2nnc(C(F)(F)F)o2)cn1` [Compound 11128, N-(pyridin-2-ylmethyl)-N-((5-(5-(trifluoromethyl)-1,3,4-oxadiazol-2-yl)pyridin-2-yl)methyl)methanesulfonamide] are 192 fold and 520 nM.
On the same counts, the results for `COc1cc(-c2nnc(C(F)(F)F)o2)ccc1CN(c1cccnc1)S(C)(=O)=O` [Compound 11129, N-(2-methoxy-4-(5-(trifluoromethyl)-1,3,4-oxadiazol-2-yl)benzyl)-N-(pyridin-3-yl)methanesulfonamide] are 48 fold and 2100 nM.
Taken in the same sequence, the figures for `CS(=O)(=O)N(Cc1ccc(-c2nnc(C(F)(F)F)o2)c(F)c1)c1cccnc1` [Compound 11133, N-(3-fluoro-4-(5-(trifluoromethyl)-1,3,4-oxadiazol-2-yl)benzyl)-N-(pyridin-3-yl)methanesulfonamide] were 290 fold and 345 nM.
Consider `O=S(=O)(c1cccnc1)N(Cc1ccc(-c2nnc(C(F)(F)F)o2)cc1)c1ccccc1` [Compound 11151, N-phenyl-N-(4-(5-(trifluoromethyl)-1,3,4-oxadiazol-2-yl)benzyl)pyridine-3-sulfonamide], for which the “HDAC6 selectivity (fold)” value is given as 741 fold and the IC50 amounted to 135 nM.
On the same counts, the results for `O=S(=O)(c1cccnc1)N(Cc1ccc(-c2nnc(C(F)F)o2)cc1)c1ccccc1` [Compound 11152, N-(4-(5-(difluoromethyl)-1,3,4-oxadiazol-2-yl)benzyl)-N-phenylpyridine-3-sulfonamide] are 1724 fold and 58 nM.
As for `CCS(=O)(=O)N(Cc1ccc(-c2nnc(C(F)(F)F)o2)cc1F)c1ccccc1` [Compound 11153, N-(2-fluoro-4-(5-(trifluoromethyl)-1,3,4-oxadiazol-2-yl)benzyl)-N-phenylethanesulfonamide], the “HDAC6 selectivity (fold)” value amounted to 793 fold and the IC50 was found to be 126 nM.

These data come from patent publication US10538498B2, “1,3,4-oxadiazole sulfonamide derivative compounds as histone deacetylase 6 inhibitor, and the pharmaceutical composition comprising the same” (Chong Kun Dang Pharmaceutical Corp., priority 2015, dated 2020).
